The target of series [1] is T1, C-X-C chemokine receptor type 4 (Homo sapiens, UniProt P61073). Description: Antagonist activity at CXCR4 (unknown origin) expressed in CHO cells assessed as reduction in SDF1-induced intracellular calcium mobilization incubated for 15 mins followed by SDF1 addition by Fluo-AM dye based fluorescence assay. Format: functional, cell-based. On the technique in general: Calcium assays in cells follow changes in intracellular calcium, usually with a dye or a luminescent sensor.

The target in series [2] is T1, C-X-C chemokine receptor type 4. Description: Displacement of [125I]SDF-1alpha from CXCR4 in human Chem-1 cells measured after 90 mins. It is filed as cell-based. In general terms: In a radioligand displacement assay an active substance lowers the binding of a labelled ligand.
A short description of series [3]: Therapeutic index, ratio of TC50 for human GHOST CXCR4 cells assessed as reduction in cell viability incubated for 4 hrs by XTT assay to EC50 for HIV1 3B reverse transcriptase infected in human GHOST CXCR4 cells assessed as reduction in viral replication incubated for 60 to 90 mins in presence of DTT and TTP by liquid scintillation counter. Format: toxicity, cell-based. Conditions: read-out: TI. In general terms: Tetrazolium dyes change colour on reduction, which living cells bring about.

For series [4], the system named is Human immunodeficiency virus 1. Briefly: Antiviral activity against HIV1 3B infected in human TZM-bl cells assessed as reduction in viral entry by measuring Tat protein level at 1500 nM measured after 3 days in presence of IT1T and morphine by luciferase-based assay. Format: functional, organism-based. Particulars: time 3.0 day.
Series [5] deals with Mu-type opioid receptor (Mus musculus, UniProt P42866). Description: Displacement of [3H]-NLX from mouse mu opioid receptor expressed in CHO cells measured after 1.5 hrs by competitive-binding assay. Format: cell-based.
Series [6] has as its target T2, Mu-type opioid receptor (Homo sapiens, UniProt P35372). Briefly: Agonist activity at mu opioid receptor (unknown origin) assessed as maximum efficacy by [35S]-GTPgammaS binding assay relative to DAMGO. It is filed as functional. Conditions: filed as agonist.
Series [7] deals with T2, Mu-type opioid receptor. Briefly: Agonist activity at mu opioid receptor (unknown origin) by [35S]-GTPgammaS binding assay. Format: functional.
The target in series [8] is T2, Mu-type opioid receptor. Description: Antagonist activity at human mu opioid receptor expressed in CHO cells co- expressing Gqi5 assessed as decrease in DAMGO-induced intracellular calcium mobilization incubated for 15 mins followed by DAMGO addition by Fluo-AM dye based fluorescence assay. It is filed as functional, cell-based.
The test system of a further series is TZM-bl. Briefly: Inhibition of HIV1 3B Tat infected in human TZM-bl cells assessed as reduction in viral entry in cells at 30 uM when pretreated for 1 hr followed by HIV1 3B infection and further incubated for 2 days followed by luciferase substrate addition by luminescence assay relative to control. Particulars: Human immunodeficiency virus 1, time 2.0 day. Format: cell-based.

The test system of series [9] is Human immunodeficiency virus 1. Briefly: Antiviral activity against HIV1 3B infected in human TZM-bl cells assessed as reduction in viral entry by measuring Tat protein level at 1000 nM measured after 3 days in presence of morphine by luciferase-based assay. It is filed as functional, organism-based. Conditions: time 3.0 day.
Series [10] in a line: Inhibition of HIV1 3B Tat infected in human TZM-bl cells assessed as reduction in viral entry in cells when pretreated for 1 hr followed by HIV1 3B infection and further incubated for 2 days followed by luciferase substrate addition by luminescence assay. It is filed as cell-based. Particulars: Human immunodeficiency virus 1, 3B.
Series [11] is described as follows: Cytotoxicity against human GHOST CXCR4 cells assessed as reduction in cell viability incubated for 4 hrs by XTT assay. Format: cell-based. Conditions: read-out: TC50.
The test system of series [12] is Human immunodeficiency virus 1. Briefly: Antiviral activity against HIV1 3B infected in human TZM-bl cells assessed as reduction in viral entry by measuring Tat protein level at 1000 nM measured after 3 days by luciferase-based assay. It is filed as functional, organism-based. Particulars: time 3.0 day.
The subject of series [13] is Human immunodeficiency virus 1. Briefly: Antiviral activity against HIV1 3B infected in human TZM-bl cells assessed as reduction in viral entry by measuring Tat protein level at 60 nM measured after 3 days in presence of morphine by luciferase-based assay. It is filed as functional, organism-based. Conditions: time 3.0 day.
Series [14] deals with Human immunodeficiency virus 1. Description: Antiviral activity against HIV1 3B infected in human TZM-bl cells assessed as reduction in viral entry by measuring Tat protein level at 60 nM measured after 3 days in presence of naltrexone and morphine by luciferase-based assay. It is filed as functional, organism-based. Conditions: time 3.0 day.
Series [15] has as its system Human immunodeficiency virus 1. Briefly: Antiviral activity against HIV1 3B infected in human TZM-bl cells assessed as reduction in viral entry by measuring Tat protein level at 60 nM measured after 3 days by luciferase-based assay. Format: functional, organism-based. Conditions: time 3.0 day.

The values that follow come from ChEMBL document CHEMBL4725485, “Bivalent Ligand Aiming Putative Mu Opioid Receptor and Chemokine Receptor CXCR4 Dimers in Opioid Enhanced HIV-1 Entry” (ACS Med Chem Lett, 2020).

Structures are written as SMILES. The source made the active and inactive calls. The rule behind the calls is not given here.

For orientation: IC50 means the point on the concentration scale where inhibition reaches its midpoint. The Ki is a dissociation constant, usually derived from enzyme kinetics or from competition with a known ligand. Low readings indicate a stronger hold on the target, high ones a looser hold on the target. For orientation: Emax means the maximal effect, on the per cent scale that the assay sets. A word on the EC50: it is the concentration that produces a half-maximal response. A lower EC50 goes with greater potency. Broadly, the inhibition is the relative decrease from the control value, in per cent.

Mu-type opioid receptor (Mus musculus, UniProt P42866), sequence (P42866 whole entry): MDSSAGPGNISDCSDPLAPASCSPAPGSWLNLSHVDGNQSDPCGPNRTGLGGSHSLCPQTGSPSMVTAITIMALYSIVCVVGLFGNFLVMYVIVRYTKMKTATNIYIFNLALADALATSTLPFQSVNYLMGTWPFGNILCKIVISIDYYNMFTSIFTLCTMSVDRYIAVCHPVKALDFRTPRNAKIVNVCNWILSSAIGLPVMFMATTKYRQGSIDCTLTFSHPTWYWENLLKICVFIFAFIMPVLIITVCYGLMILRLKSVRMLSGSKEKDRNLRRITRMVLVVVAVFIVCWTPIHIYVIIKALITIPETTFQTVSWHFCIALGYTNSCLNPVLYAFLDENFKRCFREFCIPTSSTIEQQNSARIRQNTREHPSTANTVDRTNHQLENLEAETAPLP
T1 sequence (P61073 whole entry): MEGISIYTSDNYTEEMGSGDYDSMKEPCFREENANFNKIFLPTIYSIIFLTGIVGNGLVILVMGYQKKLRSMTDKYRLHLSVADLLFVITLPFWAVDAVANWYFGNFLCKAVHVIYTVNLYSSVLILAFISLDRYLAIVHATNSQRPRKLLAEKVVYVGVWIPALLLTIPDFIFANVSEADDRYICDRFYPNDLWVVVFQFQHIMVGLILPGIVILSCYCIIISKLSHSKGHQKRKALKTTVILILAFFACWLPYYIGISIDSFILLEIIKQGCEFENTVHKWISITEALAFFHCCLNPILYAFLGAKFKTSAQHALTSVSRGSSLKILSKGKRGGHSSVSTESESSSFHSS
T2 sequence (P35372 whole entry): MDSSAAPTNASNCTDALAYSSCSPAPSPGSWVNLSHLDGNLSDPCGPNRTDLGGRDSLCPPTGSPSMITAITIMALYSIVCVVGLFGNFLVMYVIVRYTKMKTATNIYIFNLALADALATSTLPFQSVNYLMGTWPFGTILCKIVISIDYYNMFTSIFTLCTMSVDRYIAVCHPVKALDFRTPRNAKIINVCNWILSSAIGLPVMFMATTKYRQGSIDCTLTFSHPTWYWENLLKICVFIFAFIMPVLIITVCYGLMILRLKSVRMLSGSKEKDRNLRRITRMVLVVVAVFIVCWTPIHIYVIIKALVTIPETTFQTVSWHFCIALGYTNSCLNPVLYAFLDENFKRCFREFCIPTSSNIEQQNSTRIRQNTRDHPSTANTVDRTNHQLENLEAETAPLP

Take `CNC(=O)COCC(=O)NCCCCNC(=O)COCC(=O)NC[C@H]1CC[C@H](/N=C(\NC2CCCCC2)SCC2=CSC3=NC(C)(C)CN23)CC1`: the IC50 in series [1] was determined as 53000 nM; in series [2], 69000 nM. Further, the selectivity ratio at 4 h in series [3] came to 3.8.
In the case of `O=C1CC[C@@]2(O)[C@H]3Cc4ccc(O)c5c4[C@@]2(CCN3CC2CC2)[C@H]1O5`, the outcome in [4] was Active.
Turning to `CC1(C)CN2C(CS/C(=N\[C@H]3CC[C@H](CNC(=O)COCC(=O)NCCCCCCNC(=O)COCC(=O)N[C@@H]4CC[C@@]5(O)[C@H]6Cc7ccc(O)c8c7[C@@]5(CCN6CC5CC5)[C@H]4O8)CC3)NC3CCCCC3)=CSC2=N1`, in series [2], the half-maximal inhibitory concentration (IC50) was 17.2 nM.
Turning to `CC1(C)CN2C(CS/C(=N\[C@H]3CC[C@H](CNC(=O)COCC(=O)NCCCCCCCCNC(=O)COCC(=O)N[C@@H]4CC[C@@]5(O)[C@H]6Cc7ccc(O)c8c7[C@@]5(CCN6CC5CC5)[C@H]4O8)CC3)NC3CCCCC3)=CSC2=N1`, the affinity at Mu-type opioid receptor [5], expressed as Ki, was 2.92 nM.
In turn, `CNC(=O)COCC(=O)NCCCCNC(=O)COCC(=O)N[C@@H]1CC[C@@]2(O)[C@H]3Cc4ccc(O)c5c4[C@@]2(CCN3CC2CC2)[C@H]1O5` gave a Ki at Mu-type opioid receptor [5] of 3.1 nM. Also, the maximal effect (Emax) on Mu-type opioid receptor [6] came out at 12.3%. The compound also yielded a half-maximal effective concentration (EC50) at Mu-type opioid receptor [7] of 8.1 nM. Besides, the IC50 at Mu-type opioid receptor [8] worked out at 254 nM.
At Mu-type opioid receptor [5], `CC1(C)CN2C(CS/C(N)=N\[C@H]3CC[C@H](CNC(=O)COCC(=O)NCCCCNC(=O)COCC(=O)N[C@@H]4CC[C@@]5(O)[C@H]6Cc7ccc(O)c8c7[C@@]5(CCN6CC5CC5)[C@H]4O8)CC3)=CSC2=N1` came in with a Ki of 3.8 nM. For the same compound, the inhibition in the series on TZM-bl worked out at 100%. Besides, the result in [9] and in [12] was Active. Moreover, the IC50 in series [10] came out at 300 nM; in series [1], 8300 nM; at Mu-type opioid receptor [8] it was 30.5 nM; in [2], 3600 nM. Moreover, the Emax at Mu-type opioid receptor [6] was found to be 9.5%. In series [11], the CC50 at 4 h came to 153000 nM. On Mu-type opioid receptor [7], it took 50 nM to reach a half-maximal effect (EC50). Also, the selectivity ratio at 4 h in series [3] is 160.
Turning to `CC1(C)CN2C(CS/C(=N\C3CCCCC3)NC3CCCCC3)=CSC2=N1`, the 50% inhibitory concentration (IC50) in [10] was found to be 164 nM. Moreover, the result in series [13], in series [14] and in series [15] was Active. In addition, the CC50 at 4 h in series [11] is more than 1000 nM.
